Reference: ChEMBL document CHEMBL3885881, “DrugMatrix”

Organism: Rattus norvegicus
Test: DrugMatrix - Regimen: Daily Repeat
Format: toxicity, organism-based, Sprague-Dawley
Set-up: regimen Daily Repeat, gender Male, age 6-8 weeks
Settings: in vivo, iv, vehicle 100 % SALINE; for ABSOLUTE BASOPHIL / ABSOLUTE EOSINOPHIL / ABSOLUTE LYMPHOCYTE / ABSOLUTE MONOCYTE / ABSOLUTE SEGMENTED NEUTROPHIL / BASOPHIL / EOSINOPHIL / ERYTHROCYTE COUNT / HEMATOCRIT / HEMOGLOBIN / LEUKOCYTE COUNT / LYMPHOCYTE / MEAN CORPUSCULAR HEMOGLOBIN / MEAN CORPUSCULAR HEMOGLOBIN CONCENTRATION / MEAN CORPUSCULAR VOLUME / MONOCYTE / NEUTROPHIL / NUCLEATED RED BLOOD CELLS / PLATELET COUNT: tissue Blood; for ALANINE AMINOTRANSFERASE / ALBUMIN / ALKALINE PHOSPHATASE / ASPARTATE AMINOTRANSFERASE / BLOOD UREA NITROGEN / CARBON DIOXIDE / CHLORIDE / CHOLESTEROL / CREATINE PHOSPHOKINASE / CREATININE / GLUCOSE / LACTATE DEHYDROGENASE / LIPASE / PHOSPHORUS / POTASSIUM / SODIUM / TOTAL BILIRUBIN / TOTAL PROTEIN / URIC ACID: tissue Plasma
[1] = 7 mg/kg, 120 h, dose level Low, time 5 day
[2] = 41 mg/kg, 72 h, dose level High, time 3 day
[3] = 41 mg/kg, 120 h, dose level High, time 5 day

CC(=O)N[C@@H]1[C@H](Oc2c3cc4cc2Oc2ccc(cc2Cl)[C@@H](O[C@@H]2O[C@@H](CO)[C@@H](O)[C@H](O)[C@@H]2NC(C)=O)[C@@H]2NC(=O)[C@H](NC(=O)[C@@H]4NC(=O)[C@H]4NC(=O)[C@@H](Cc5ccc(c(Cl)c5)O3)NC(=O)[C@H](N)c3ccc(O)c(c3)Oc3cc(O)cc4c3)c3ccc(O)c(c3)-c3c(O[C@H]4O[C@H](CO)[C@@H](O)[C@@H](O)[C@@H]4O)cc(O)cc3[C@@H](C(=O)O)NC2=O)O[C@@H](CO)[C@@H](O)[C@@H]1O
ABSOLUTE BASOPHIL [1]: 0 CELLS/uL | ABSOLUTE EOSINOPHIL [1]: 166 CELLS/uL | ABSOLUTE LYMPHOCYTE [1]: 15568 CELLS/uL | ABSOLUTE MONOCYTE [1]: 230.67 CELLS/uL | ABSOLUTE SEGMENTED NEUTROPHIL [1]: 1568.67 CELLS/uL | BASOPHIL [1]: 0% | EOSINOPHIL [1]: 1% | ERYTHROCYTE COUNT [1]: 5.77 x10E6/uL | HEMATOCRIT [1]: 36.27% | HEMOGLOBIN [1]: 13.63 G/DL | LEUKOCYTE COUNT [1]: 17.53 x10E3/uL | LYMPHOCYTE [1]: 88.67% | MEAN CORPUSCULAR HEMOGLOBIN [1]: 23.67 pg | MEAN CORPUSCULAR HEMOGLOBIN CONCENTRATION [1]: 37.57 G/DL | MEAN CORPUSCULAR VOLUME [1]: 62.97 fL | MONOCYTE [1]: 1.33% | NEUTROPHIL [1]: 9% | NUCLEATED RED BLOOD CELLS [1]: 0 /100WBC | PLATELET COUNT [1]: 1190.67 x10E3/uL | ALANINE AMINOTRANSFERASE [1]: 40.67 u/L | ALBUMIN [1]: 4.23 G/DL | ALKALINE PHOSPHATASE [1]: 395 u/L | ASPARTATE AMINOTRANSFERASE [1]: 84.33 u/L | BLOOD UREA NITROGEN [1]: 19.33 mg/dL | CARBON DIOXIDE [1]: 24 mmol/L | CHLORIDE [1]: 106.67 MEQ/L | CHOLESTEROL [1]: 59.33 mg/dL | CREATINE PHOSPHOKINASE [1]: 389.67 u/L | CREATININE [1]: 0.18 mg/dL | GLUCOSE [1]: 149 mg/dL | LACTATE DEHYDROGENASE [1]: 466.67 u/L | LIPASE [1]: 8.33 u/L | PHOSPHORUS [1]: 11.47 mg/dL | POTASSIUM [1]: 5.99 MEQ/L | SODIUM [1]: 144.47 MEQ/L | TOTAL BILIRUBIN [1]: 0.2 mg/dL | TOTAL PROTEIN [1]: 6.03 G/DL | URIC ACID [1]: 1.17 mg/dL | ABSOLUTE BASOPHIL [2]: 0 CELLS/uL | ABSOLUTE EOSINOPHIL [2]: 126.67 CELLS/uL | ABSOLUTE LYMPHOCYTE [2]: 16661.33 CELLS/uL | ABSOLUTE MONOCYTE [2]: 515.67 CELLS/uL | ABSOLUTE SEGMENTED NEUTROPHIL [2]: 1929.67 CELLS/uL | BASOPHIL [2]: 0% | EOSINOPHIL [2]: 0.67% | ERYTHROCYTE COUNT [2]: 5.53 x10E6/uL | HEMATOCRIT [2]: 35.03% | HEMOGLOBIN [2]: 13.17 G/DL | LEUKOCYTE COUNT [2]: 19.23 x10E3/uL | LYMPHOCYTE [2]: 86.67% | MEAN CORPUSCULAR HEMOGLOBIN [2]: 23.83 pg | MEAN CORPUSCULAR HEMOGLOBIN CONCENTRATION [2]: 37.6 G/DL | MEAN CORPUSCULAR VOLUME [2]: 63.4 fL | MONOCYTE [2]: 2.67% | NEUTROPHIL [2]: 10% | NUCLEATED RED BLOOD CELLS [2]: 0 /100WBC | PLATELET COUNT [2]: 1404 x10E3/uL | ALANINE AMINOTRANSFERASE [2]: 41.67 u/L | ALBUMIN [2]: 4.13 G/DL | ALKALINE PHOSPHATASE [2]: 271.33 u/L | ASPARTATE AMINOTRANSFERASE [2]: 67.33 u/L | BLOOD UREA NITROGEN [2]: 18.33 mg/dL | CARBON DIOXIDE [2]: 27 mmol/L | CHLORIDE [2]: 102 MEQ/L | CHOLESTEROL [2]: 61.67 mg/dL | CREATINE PHOSPHOKINASE [2]: 181 u/L | CREATININE [2]: 0.21 mg/dL | GLUCOSE [2]: 153.67 mg/dL | LACTATE DEHYDROGENASE [2]: 125.67 u/L | LIPASE [2]: 8.33 u/L | PHOSPHORUS [2]: 11.33 mg/dL | POTASSIUM [2]: 6.69 MEQ/L | SODIUM [2]: 143.47 MEQ/L | TOTAL BILIRUBIN [2]: 0.2 mg/dL | TOTAL PROTEIN [2]: 5.87 G/DL | URIC ACID [2]: 1.37 mg/dL | ABSOLUTE BASOPHIL [3]: 0 CELLS/uL | ABSOLUTE EOSINOPHIL [3]: 0 CELLS/uL | ABSOLUTE LYMPHOCYTE [3]: 12482 CELLS/uL | ABSOLUTE MONOCYTE [3]: 440.67 CELLS/uL | ABSOLUTE SEGMENTED NEUTROPHIL [3]: 1610.67 CELLS/uL | BASOPHIL [3]: 0% | EOSINOPHIL [3]: 0% | ERYTHROCYTE COUNT [3]: 5.88 x10E6/uL | HEMATOCRIT [3]: 36.7% | HEMOGLOBIN [3]: 13.8 G/DL | LEUKOCYTE COUNT [3]: 14.53 x10E3/uL | LYMPHOCYTE [3]: 86% | MEAN CORPUSCULAR HEMOGLOBIN [3]: 23.47 pg | MEAN CORPUSCULAR HEMOGLOBIN CONCENTRATION [3]: 37.6 G/DL | MEAN CORPUSCULAR VOLUME [3]: 62.47 fL | MONOCYTE [3]: 3% | NEUTROPHIL [3]: 11% | NUCLEATED RED BLOOD CELLS [3]: 0 /100WBC | PLATELET COUNT [3]: 1300.33 x10E3/uL | ALANINE AMINOTRANSFERASE [3]: 57.67 u/L | ALBUMIN [3]: 4.3 G/DL | ALKALINE PHOSPHATASE [3]: 395 u/L | ASPARTATE AMINOTRANSFERASE [3]: 79.33 u/L | BLOOD UREA NITROGEN [3]: 18.67 mg/dL | CARBON DIOXIDE [3]: 29.67 mmol/L | CHLORIDE [3]: 102.33 MEQ/L | CHOLESTEROL [3]: 69.67 mg/dL | CREATINE PHOSPHOKINASE [3]: 275 u/L | CREATININE [3]: 0.19 mg/dL | GLUCOSE [3]: 177 mg/dL | LACTATE DEHYDROGENASE [3]: 229 u/L | LIPASE [3]: 9 u/L | PHOSPHORUS [3]: 13.2 mg/dL | POTASSIUM [3]: 6.79 MEQ/L | SODIUM [3]: 148.17 MEQ/L | TOTAL BILIRUBIN [3]: 0.17 mg/dL | TOTAL PROTEIN [3]: 6.3 G/DL | URIC ACID [3]: 1.83 mg/dL
